Source: patent publication US20100063085A1, “METHOD OF TREATING LEARNING IMPAIRMENT IN DOWN'S SYNDROME SUBJECTS” (University Court of The University of Dundee, priority 2008, published 2010)
Read-outs that look alike come from different tables or passages of the source.

Columns and labels:
Format in all cases: biochemical
AMPK = AMPK 33P kinase assay
Method: (§1) All assays (25.5 μl) were carried out at room temperature (21° C.) and were linear with respect to time and enzyme concentrations under the conditions used. Assays were performed for 30 minutes except assays for LCK and PKB which were performed for 15 minutes using Multidrop Micro reagent dispensers (Thermo Electron Corporation, Waltham, Mass. 02454, USA) in a 96-well format. The concentration of […] [γ-^33P] ATP (800 cpm/pmol) in the assays was one of three concentrations (5, 20 or 50 μM) in order to be at or below Km for ATP for the enzyme. Assays were initiated with MgATP and stopped by addition of 5 μl of 0.5M orthophosphoric acid. Assays were then harvested onto P81 filterplates using a unifilter harvester (PerkinElmer, Boston, Mass. 02118, USA), with a wash buffer of 50 mM orthophosphoric acid. Filterplates were then air dried overnight. 10 μl of Microscint O was added per well prior to counting for radioactivity.
MKK1, JNK/SAPK1c, SAPK2a/p38, SAPK2b/p38β2, SAPK3/p38γ, SAPK4/p38δ, MAPK2/ERK2, MAPKAP-K1β, MAPKAP-K2, MSK1, PRAK, PKA, PKCα, PDK1, SGK, p70S6K, GSK3β, ROCK-II, PRK2, AMPK, CHK1, CHK2, CK2, PHK, LCK, were assayed according to Davies et al., (Davies, S. P., Reddy, H., Caivano, M. and Cohen, P. Biochem. J. 351, 95-105, 2000.
CSK and CDK2/cyclinA, were assayed according to Bain et al. (Bain J, McLauchlan H, Elliott M, Cohen P. Biochem J. 371, 199-204, 2003., except that ATP concentrations were either 5, 20 or 50 micromolar so that they were at or below the Km for ATP. The ATP concentrations used were as follows, 5 μM for assays of MKK1, SAPK3, SAPK4, GSK3β, PRK2 CK2 20 μm for assays of JNK, SAPK2β, MAPKAP-K2, MSK1, PRAK, PKA, […], PDK1, SGK, p70S6K, ROCK-II, CHK1, CHK2, CSK, CDK2, and 50 μM for assays of SAPK2a, MAPK2/ERK2, AMPK, LCK, PHK and MAPKAP-K1β.

PKD1 = molecular target: T1, PKD1 (Homo sapiens, UniProt Q15139); assay: PKD1 33P kinase assay; settings: read-out: PKD1 activity as percentage of control without inhibitor
T1 sequence (Q15139 1-912): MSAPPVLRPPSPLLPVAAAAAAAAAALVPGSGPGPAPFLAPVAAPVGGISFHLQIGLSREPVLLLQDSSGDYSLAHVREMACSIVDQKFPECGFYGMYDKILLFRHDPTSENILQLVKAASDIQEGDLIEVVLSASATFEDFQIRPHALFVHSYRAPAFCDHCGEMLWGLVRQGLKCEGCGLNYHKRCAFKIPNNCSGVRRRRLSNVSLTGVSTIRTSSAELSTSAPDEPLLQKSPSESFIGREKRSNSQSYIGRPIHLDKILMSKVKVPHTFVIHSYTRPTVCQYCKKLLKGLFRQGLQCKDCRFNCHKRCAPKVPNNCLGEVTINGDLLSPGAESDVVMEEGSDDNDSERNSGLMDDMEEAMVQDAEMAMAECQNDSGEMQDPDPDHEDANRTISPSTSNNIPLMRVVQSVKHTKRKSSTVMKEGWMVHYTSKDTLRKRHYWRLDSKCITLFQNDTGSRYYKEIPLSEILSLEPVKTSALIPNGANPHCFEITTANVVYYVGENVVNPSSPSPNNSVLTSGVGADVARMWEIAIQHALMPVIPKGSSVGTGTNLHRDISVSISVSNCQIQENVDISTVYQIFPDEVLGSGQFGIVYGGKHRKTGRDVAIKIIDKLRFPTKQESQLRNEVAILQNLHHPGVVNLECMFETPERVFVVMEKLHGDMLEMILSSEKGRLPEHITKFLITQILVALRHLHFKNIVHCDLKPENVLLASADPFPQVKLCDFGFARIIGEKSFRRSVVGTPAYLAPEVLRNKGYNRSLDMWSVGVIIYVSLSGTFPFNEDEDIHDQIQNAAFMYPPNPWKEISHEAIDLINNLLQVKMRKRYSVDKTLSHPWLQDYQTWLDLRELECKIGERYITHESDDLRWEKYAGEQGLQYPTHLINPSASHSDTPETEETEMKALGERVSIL
Method: as §1
(§2) The following kinases were assayed against the substrates indicated. Aurora B was assayed against the substrate peptide […] (300 μM), ERK8 and MST-2 were both assayed against MBP (0.33 mg/ml). IKKβ was assayed against the substrate peptide […] (300 μM), JNK3 was assayed against 3 μM ATF2[19-96]. MAPKAP-K3 and PKD1 were both assayed against […] (30 μM), MARK3 was assayed against CHKtide ([…]) substrate peptide (300 μM). MNK1 and MNK2 were both assayed against eIF4E protein (0.5 mg/ml). NEK7 was assayed against […] (300 μM), PIM2 was assayed against […] (300 μM), ΔPH PKBβ-S474D was assayed against Crosstide (30 μM), PLK1 was assayed against […] (300 μM). PRK2 was assayed against Long S6 peptide, […] (30 μM), RSK2 was assayed against […] (30 μM), SRC was assayed against cdc2 peptide, […], (300 μM) and SRPK1 was assayed against peptide […] (300 μM). All enzymes were diluted in 50 mM Tris/HCl pH 7.5, 0.1 mM EGTA, 1 mg/ml BSA, 0.1% β-mercaptoethanol buffer and assayed in an incubation containing 50 mM Tris/HCl pH7.5, 0.1 mM EGTA, 0.1% β-mercaptoethanol, CAMK-1 (5-20 mU) diluted in 50 mM Tris/HCl pH 7.5, 0.1 mM EGTA, 1 mg/ml BSA, 0.1% β-mercaptoethanol is assayed against substrate peptide […] in an incubation containing 50 mM Tris/HCl pH 7.5, 0.1 mM EGTA, 0.5 mM CaCl2, 0.3 μM calmodulin, 0.1% β-mereaptoethanol, 300 μM substrate peptide, 10 mM magnesium acetate and 0.05 mM [^33P-γ-ATP] (500-1000 cpm/pmole). EF2K (5-20 mU) diluted in 50 mM Hepes pH 6.6, 0.1% β-mercaptoethanol, 1 mg/ml BSA is assayed against a substrate peptide […] in an incubation containing 50 mM Hepes pH 6.6, 0.2 mM CaCl2, 0.3 μM Calmodulin, 0.05% b-mercaptoethanol, 300 μM substrate peptide, 10 mM magnesium acetate and 0.05 mM [^33P-γ-ATP] (500-1000 cpm/pmole).

PLK1 = PLK1 (Homo sapiens, UniProt P53350); assay: PLK1 33P kinase assay; settings: read-out: PLK1 activity as percentage of control without inhibitor
Chain of PLK1 (P53350 whole entry, species assumed): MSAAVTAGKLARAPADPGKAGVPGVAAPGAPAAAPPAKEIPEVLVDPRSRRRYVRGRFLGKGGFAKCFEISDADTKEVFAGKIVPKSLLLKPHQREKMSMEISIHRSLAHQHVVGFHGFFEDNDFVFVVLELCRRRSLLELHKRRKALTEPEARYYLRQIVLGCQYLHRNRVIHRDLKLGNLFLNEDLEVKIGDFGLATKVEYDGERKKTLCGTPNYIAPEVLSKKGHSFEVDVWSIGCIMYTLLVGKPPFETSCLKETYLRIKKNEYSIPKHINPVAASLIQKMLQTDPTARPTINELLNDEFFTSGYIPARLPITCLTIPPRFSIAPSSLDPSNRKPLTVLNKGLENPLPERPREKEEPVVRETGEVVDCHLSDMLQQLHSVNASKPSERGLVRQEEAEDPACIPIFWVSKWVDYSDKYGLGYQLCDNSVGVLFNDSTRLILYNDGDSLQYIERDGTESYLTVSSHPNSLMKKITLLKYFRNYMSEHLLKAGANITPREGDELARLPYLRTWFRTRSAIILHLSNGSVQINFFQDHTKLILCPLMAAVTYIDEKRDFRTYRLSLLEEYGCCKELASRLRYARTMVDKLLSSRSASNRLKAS
Method: as §1, §2

Compound	AMPK activity as percentage of control without inhibitor (AMPK; inhibitor 1 μM) [%]	AMPK activity as percentage of control without inhibitor (AMPK; inhibitor 10 μM) [%]	remaining activity at 1 µM (PKD1; inhibitor 1 μM) [%]	remaining activity at 10 µM (PKD1; inhibitor 10 μM) [%]	remaining activity at 1 µM (PLK1; inhibitor 1 μM) [%]	remaining activity at 10 µM (PLK1; inhibitor 10 μM) [%]	remaining activity at 1 µM (PKD1) [%]	remaining activity at 10 µM (PKD1) [%]	remaining activity at 1 µM (PLK1) [%]	remaining activity at 10 µM (PLK1) [%]
COc1ccc2c3c([nH]c2c1)C(C)=NCC3 [Harmaline]	97	83	99	101	92	100				
CC1=NCCc2c1[nH]c1cc(O)ccc21 [Harmalol]	92	52	75	21	88	81				
COc1ccc2c(c1)[nH]c1c(C)nccc12 [Harmine]	98	103					86	53	92	87
